The source of these data is US7241791B2, “Substituted 4-(indazol-3-yl)phenols” (Wyeth, priority 2002, dated 2007).

Assay [1] has as its target T1, human ERα (Homo sapiens, UniProt P03372).
T1 sequence (P03372 1-595): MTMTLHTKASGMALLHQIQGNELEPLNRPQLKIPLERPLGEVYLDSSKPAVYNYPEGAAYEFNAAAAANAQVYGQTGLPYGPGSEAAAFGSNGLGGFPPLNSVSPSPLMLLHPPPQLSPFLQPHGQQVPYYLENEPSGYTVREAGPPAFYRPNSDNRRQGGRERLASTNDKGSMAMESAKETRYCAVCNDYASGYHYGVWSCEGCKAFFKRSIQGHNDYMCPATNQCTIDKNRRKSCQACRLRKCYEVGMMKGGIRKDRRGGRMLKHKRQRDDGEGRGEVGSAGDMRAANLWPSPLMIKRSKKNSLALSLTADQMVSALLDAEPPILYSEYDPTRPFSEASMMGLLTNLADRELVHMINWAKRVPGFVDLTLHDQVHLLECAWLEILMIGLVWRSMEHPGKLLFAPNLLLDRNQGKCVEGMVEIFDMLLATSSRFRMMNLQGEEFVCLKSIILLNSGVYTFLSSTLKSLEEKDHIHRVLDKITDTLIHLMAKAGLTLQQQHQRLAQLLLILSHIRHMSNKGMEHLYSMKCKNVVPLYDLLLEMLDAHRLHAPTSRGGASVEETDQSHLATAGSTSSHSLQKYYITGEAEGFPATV
Nature of the assay: Creatine kinase expression (ER/CK) in Ad5-wt-hERα infected HAECT-1 cells. Conditions: for ER/CK % E2: efficacy relative to the maximal stimulation observed with E2.

In assay [2] the target is T1, human ERα. Nature of the assay: NF-κB luciferase reporter (ER/NF-KB-luc) in Ad5-wt-hERα infected HAECT-1 cells. Conditions: for IC50: ER/NF-KB-luc IC50, Ad5-wt-ER infected HAECT-1 cells, IL-1β; for Emax: HAECT1, read-out: ER/NF-KB-luc % E2, efficacy relative to the maximal inhibition observed with E2.

As for `CCCCn1nc(-c2ccc(O)cc2)c2ccc(C(F)(F)F)cc21` [Example 198, 4-[1-butyl-6-(trifluoromethyl)-1H-indazol-3-yl]phenol], in assay [1], the EC50 was found to be 1000 nM and the “ER/CK % E2” value was 30 % E2. In assay [2], 303 nM corresponded to half-maximal inhibition (IC50) and the Emax came to 100%.

For `C=CCn1nc(-c2ccc(O)cc2)c2cccc(C)c21` [Example 57, 4-(1-allyl-7-methyl-1H-indazol-3-yl)phenol], in assay [1], a half-maximal effect (EC50) was put at 205 nM and the “ER/CK % E2” value is listed as 45 % E2. Besides, in assay [2], the IC50 amounted to 45 nM and the Emax was 89%.

On to `Oc1ccc(-c2n[nH]c3cc(Cl)ccc23)cc1` [Example 134, 4-(6-chloro-1H-indazol-3-yl)phenol], for which, in assay [1], the EC50 amounted to 1930 nM and the “ER/CK % E2” value was found to be 36 % E2. In addition, in assay [2], half-maximal inhibition (IC50) required 897 nM and the Emax was determined as 76%.

For the compound `Cc1ccccc1-c1cccc2c(-c3ccc(O)cc3)nn(C(C)C)c12` [Example 235, 4-[1-isopropyl-7-(2-methylphenyl)-1H-indazol-3-yl]phenol], in assay [1], the EC50 came out at 223 nM and the “ER/CK % E2” value was 35 % E2. For the same compound, in assay [2], the midpoint of inhibition, the IC50, lay at 16 nM and the Emax was 74%.

Turning to `CC(C)n1nc(-c2ccc(O)cc2)c2cccc(-c3ccco3)c21` [Example 267, 4-[7-(2-furyl)-1-isopropyl-1H-indazol-3-yl]phenol], in assay [1], a half-maximal response (EC50) required 250 nM and the “ER/CK % E2” value is listed as 35 % E2. In assay [2], inhibition was half-maximal at 53 nM (IC50) and the Emax came out at 64%.

Turning to `C=CCn1nc2c(C(F)(F)F)cccc2c1-c1ccc(O)cc1C` [Example 72, 4-[2-allyl-7-(trifluoromethyl)-2H-indazol-3-yl]-3-methylphenol], in assay [1], a half-maximal response (EC50) required 140 nM and the “ER/CK % E2” value stood at 46 % E2. Besides, in assay [2], the IC50 stood at 7 nM and the Emax is 85%.

For the compound `CCCn1nc(-c2ccc(O)cc2)c2cccc(C(F)(F)F)c21` [Example 48, 4-[1-propyl-7-(trifluoromethyl)-1H-indazol-3-yl]phenol], in assay [1], the response was half-maximal at 79 nM (EC50) and the “ER/CK % E2” value is given as 49 % E2. For the same compound, in assay [2], inhibition was half-maximal at 42 nM (IC50) and the Emax was 107%.

For `Cn1nc(-c2ccc(O)cc2O)c2cc(F)ccc21` [Example 172, 4-(5-fluoro-1-methyl-1H-indazol-3-yl)benzene-1,3-di], in assay [1], the concentration for a half-maximal effect (EC50) was 1320 nM and the “ER/CK % E2” value amounted to 92 % E2. Also, in assay [2], half-maximal inhibition (IC50) required 349 nM and the Emax is 95%.

With `CCCn1nc(-c2ccc(O)cc2C)c2cccc(C(F)(F)F)c21` [Example 76, 3-methyl-4-[1-propyl-7-(trifluoromethyl)-1H-indazol-3-yl]phenol], in assay [1], the EC50 was found to be 57 nM and the “ER/CK % E2” value stood at 20 % E2. Moreover, in assay [2], the midpoint of inhibition, the IC50, lay at 22 nM and the Emax came to 86%.

As to `Cn1nc(-c2ccc(O)cc2O)c2cccc(C(F)(F)F)c21` [Example 167, 4-[1-methyl-7-(trifluoromethyl)-1H-indazol-3-yl]benzene-1,3-diol], in assay [1], the EC50 was 588 nM and the “ER/CK % E2” value is recorded as 29 % E2. Moreover, in assay [2], 311 nM corresponded to half-maximal inhibition (IC50) and the Emax was determined as 83%.

As to `CSc1ccc(-c2cccc3c(-c4ccc(O)cc4C)nn(C4CCCC4)c23)cc1` [Example 257, 4-{1-cyclopentyl-7-[4-(methylthio)phenyl]-1H-indazol-3-yl}-3-methylphenol], in assay [1], the half-maximal effective concentration (EC50) is 490 nM and the “ER/CK % E2” value is given as 27 % E2. Moreover, in assay [2], the IC50 came out at 43 nM and the Emax turned out to be 76%.

For `Cn1nc(-c2ccc(O)c(O)c2)c2cccc(C(F)(F)F)c21` [Example 176, 4-[1-methyl-7-(trifluoromethyl)-1H-indazol-3-yl]benzene-1,2-diol], in assay [1], the concentration for a half-maximal effect (EC50) came to 1040 nM and the “ER/CK % E2” value came out at 70 % E2. In assay [2], half-maximal inhibition (IC50) required 587 nM and the Emax came out at 111%.

By EC50 is commonly meant the concentration that produces a half-maximal response. A high value points to lower potency in that assay. One may read the IC50 as the concentration that gives 50% inhibition. The low end stands for inhibition by little substance, the high end for a need for much substance.
